Measurements taken from patent US9999222B2, “Herbicidal combination comprising azines” (BASF SE, priority 2014, dated 2018).
Where “and” joins values, the source holds several entries; their conditions need not be identical. Identical values can stand only once. Like-named read-outs stand apart in the source and are kept apart here.

Columns and labels:
Assay in all cases: Greenhouse test, pre-emergence treatment
GERPU = assay type: in vivo, Geranium pusillum; details: Geranium pusillum, pre-emergence, 480 h, pre-emergence, read-out: observed % activity 20 DAT
How it was run: (§1)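 Seeds were sown in loamy sand with about 3.0% humus, and compounds in water were sprayed immediately after sowing, alone or as combinations formulated as 10% emulsion concentrates. Plants grew under hoods until rooted, at 10-25 °C or 20-35 °C by species, for 2 to 4 weeks. Damage was scored 0-100 (100 = no emergence or complete destruction), and Colby expected values were E=X+Y−(X·Y/100).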

ECHCG = assay type: in vivo, Echinocloa crus-galli; details: Echinochloa crus-galli, 480 h, read-out: observed % activity 20 DAT; for inhibition at 12.5 g/ha: use rate 12.5 g ai/ha
How it was run: as §1

BRADC = assay type: in vivo, Brachiaria decumbens; details: pre-emergence
How it was run: as §1

ALOMY = assay type: in vivo, Alopecurus myosuroides; details: Alopecurus myosuroides, pre-emergence, 480 h; for inhibition at 12.5 g/ha: use rate 12.5 g ai/ha; for inhibition at 25 g/ha: use rate 25 g ai/ha
How it was run: as §1

AVEFA = assay type: in vivo, Avena fatua; details: pre-emergence
How it was run: as §1

SIDRH = assay type: in vivo, Sida rhombifolia; details: pre-emergence
How it was run: as §1

GALAP = assay type: in vivo, Galium aparine; details: Galium aparine, 480 h, pre-emergence
How it was run: as §1

PHACA = assay type: in vivo, Phalaris canariensis; details: Phalaris canariensis, pre-emergence, 480 h; for inhibition at 12.5 g/ha: use rate 12.5 g ai/ha; for inhibition at 25 g/ha: use rate 25 g ai/ha
How it was run: as §1

LOLMU = assay type: in vivo, Lolium multiflorum; details: Lolium multiflorum, pre-emergence, 480 h; for inhibition at 12.5 g/ha: use rate 12.5 g ai/ha; for inhibition at 25 g/ha: use rate 25 g ai/ha
How it was run: as §1

KCHSC = assay type: in vivo, Kochia scoparia; details: Bassia scoparia, 480 h, pre-emergence
How it was run: as §1

POLCO = assay type: in vivo, Polygonum convolvulus; details: Fallopia convolvulus, 480 h, pre-emergence; for inhibition at 12.5 g/ha: use rate 12.5 g ai/ha
How it was run: as §1

SETFA = assay type: in vivo, Setaria faberi; details: Setaria faberi, 480 h, SETFA, 20 DAT, read-out: observed % activity 20 DAT
How it was run: as §1

EPHHL = assay type: in vivo, Euphorbia heterophylla; details: Euphorbia heterophylla, pre-emergence, 480 h, pre-emergence, read-out: observed % activity 20 DAT
How it was run: as §1

IPOHE = assay type: in vivo, Ipomoea hederacea; details: Ipomoea hederacea, 480 h, 24 g ai/ha, read-out: observed % activity 20 DAT
How it was run: as §1

COMBE = assay type: in vivo, Commelina benghalensis; details: Commelina benghalensis, 480 h; pre-emergence, 12 g ai/ha; read-out: observed % activity 20 DAT
How it was run: as §1

[1] = 12 g ai/ha, 20 DAT, read-out: observed % activity
[2] = 24 g ai/ha, 20 DAT, read-out: observed % activity
[3] = 6 g ai/ha, read-out: observed % activity 20 DAT
[4] = 12 g ai/ha, read-out: observed % activity 20 DAT
[5] = 24 g ai/ha, read-out: observed % activity 20 DAT
[6] = ALOMY, 20 DAT, read-out: observed % activity 20 DAT
[7] = read-out: observed % activity 20 DAT
[8] = 6 g ai/ha, 20 DAT, read-out: observed % activity
[9] = 8 g ai/ha, read-out: observed % activity 20 DAT
[10] = PHACA, 20 DAT, read-out: observed % activity 20 DAT
[11] = LOLMU, 20 DAT, read-out: observed % activity 20 DAT

Cn1nc(C(F)(F)F)c(CS(=O)(=O)C2=NOC(C)(C)C2)c1OC(F)F [Pyroxasulfone, pyroxasulfone]
pest or weed control at 12 g/ha (GERPU; 12 g ai/ha): 10% | pest or weed control at 24 g/ha (GERPU; 24 g ai/ha): 20% | pest or weed control at 8 g/ha (ECHCG; 8 g ai/ha): 70% | inhibition at 12.5 g/ha (ECHCG; ECHCG, 20 DAT): 50% | inhibition at 25 g/ha (ECHCG; ECHCG, use rate 25 g ai/ha, 20 DAT): 90% | inhibition at 12.5 g/ha (ECHCG): 50% | inhibition at 6 g/ha (BRADC; Urochloa decumbens, 480 h, 6 g ai/ha, 20 DAT, read-out: observed % activity): 53% | pest or weed control at 6 g/ha (BRADC; Urochloa decumbens, 480 h, 6 g ai/ha, read-out: observed % activity 20 DAT): 35% | pest or weed control at 12 g/ha (BRADC; Urochloa decumbens, 480 h, 12 g ai/ha, read-out: observed % activity 20 DAT): 30% | pest or weed control at 16 g/ha (BRADC; Urochloa decumbens, 480 h, 16 g ai/ha, read-out: observed % activity 20 DAT): 55% | pest or weed control at 24 g/ha (BRADC; Urochloa decumbens, 480 h, 24 g ai/ha, read-out: observed % activity 20 DAT): 95% | observed % activity 20 DAT (BRADC; 12 g ai/ha): 30% | inhibition at 12 g/ha (ALOMY; [1]): 95% | inhibition at 24 g/ha (ALOMY; [2]): 98% | pest or weed control at 6 g/ha (ALOMY; [3]): 80% | pest or weed control at 12 g/ha (ALOMY; [4]): 95% | pest or weed control at 24 g/ha (ALOMY; [5]): 98% | inhibition at 12.5 g/ha (ALOMY; [6]): 20% | inhibition at 25 g/ha (ALOMY; [6]): 20% | inhibition at 12.5 g/ha (ALOMY; [7]): 20% | inhibition at 25 g/ha (ALOMY; [7]): 20% | inhibition at 6 g/ha (AVEFA; Avena fatua, 480 h, 6 g ai/ha, 20 DAT, read-out: observed % activity): 0% | inhibition at 24 g/ha (AVEFA; Avena fatua, 480 h, 24 g ai/ha, 20 DAT, read-out: observed % activity): 60% | observed % activity 20 DAT (AVEFA; 8 g ai/ha): 40% | observed % activity 20 DAT (AVEFA; 12 g ai/ha): 20% and 30% | observed % activity 20 DAT (AVEFA; 16 g ai/ha): 60% and 35% | observed % activity 20 DAT (AVEFA; 24 g ai/ha): 70% | pest or weed control at 12 g/ha (SIDRH; Sida rhombifolia, 480 h, 12 g ai/ha, read-out: observed % activity 20 DAT): 45% | pest or weed control at 24 g/ha (SIDRH; Sida rhombifolia, 480 h, 24 g ai/ha, read-out: observed % activity 20 DAT): 95% | observed % activity 20 DAT (SIDRH; 12 g ai/ha): 45% | pest or weed control at 12 g/ha (GALAP; [4]): 35% | pest or weed control at 24 g/ha (GALAP; [5]): 50% | inhibition at 12 g/ha (GALAP; [1]): 75% | inhibition at 24 g/ha (GALAP; [2]): 75% | inhibition at 6 g/ha (PHACA; [8]): 80% | inhibition at 24 g/ha (PHACA; [2]): 95% | pest or weed control at 6 g/ha (PHACA; [3]): 70% | pest or weed control at 8 g/ha (PHACA; [9]): 70% | pest or weed control at 12 g/ha (PHACA; [4]): 75% | pest or weed control at 16 g/ha (PHACA; 16 g ai/ha, read-out: observed % activity 20 DAT): 75% | pest or weed control at 24 g/ha (PHACA; [5]): 95% | inhibition at 12.5 g/ha (PHACA; [10]): 40% | inhibition at 25 g/ha (PHACA; [10]): 55% | inhibition at 12.5 g/ha (PHACA; [7]): 40% | inhibition at 25 g/ha (PHACA; [7]): 55% | inhibition at 6 g/ha (LOLMU; [8]): 35% | inhibition at 24 g/ha (LOLMU; [2]): 98% | pest or weed control at 6 g/ha (LOLMU; [3]): 70% | pest or weed control at 8 g/ha (LOLMU; [9]): 50% | pest or weed control at 12 g/ha (LOLMU; [4]): 80% | pest or weed control at 24 g/ha (LOLMU; [5]): 95% | inhibition at 12.5 g/ha (LOLMU; [11]): 30% | inhibition at 25 g/ha (LOLMU; [11]): 40% | inhibition at 12.5 g/ha (LOLMU; [7]): 30% | inhibition at 25 g/ha (LOLMU; [7]): 40% | pest or weed control at 12 g/ha (KCHSC; [4]): 50% | pest or weed control at 24 g/ha (KCHSC; [5]): 80% | inhibition at 6 g/ha (KCHSC; [8]): 0% | inhibition at 12 g/ha (KCHSC; [1]): 85% | inhibition at 25 g/ha (KCHSC; use rate 25 g ai/ha, read-out: observed % activity 20 DAT): 0% | pest or weed control at 12 g/ha (POLCO; [4]): 20% | pest or weed control at 24 g/ha (POLCO; [5]): 20% | inhibition at 12 g/ha (POLCO; [1]): 0% | inhibition at 12.5 g/ha (POLCO; POLCO, 20 DAT, read-out: observed % activity 20 DAT): 0% | inhibition at 12.5 g/ha (POLCO; [7]): 0% | inhibition at 12.5 g/ha (SETFA; use rate 12.5 g ai/ha): 80% | inhibition at 25 g/ha (SETFA; use rate 25 g ai/ha): 95% | pest or weed control at 12 g/ha (EPHHL; 12 g ai/ha): 40% | pest or weed control at 24 g/ha (EPHHL; 24 g ai/ha): 70% | pest or weed control at 24 g/ha (IPOHE): 10% | pest or weed control at 12 g/ha (COMBE): 90%
